Results: patent US12539292B2, “BRM targeting compounds and associated methods of use” (Arvinas Operations, Inc., priority 2018, dated 2026)

Target: T1, BRM (Homo sapiens, UniProt P51531)
T1 construct: In-Cell Western Screen of BRM Degradation in SW1573 Cells; endogenous in cells; host or cells: SW1573
Assay: In-cell Western screen of BRM degradation in SW1573 cells (Dmax and DC50)
Type: cell-based
Details: BRM degradation, SW1573 cells; for DC50: read-out: DC50; for Dmax: tested at the top concentration of between 0.3 and 10 μM, read-out: Dmax (%) (% degraded)
Summary of the method: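 SW1573 cells were treated with compound overnight (18-20 h; final DMSO 0.1%), then fixed in 4% PFA, permeabilized with Triton X-100 and blocked. BRM was detected by in-cell Western using 800 nm anti-rabbit and 680 nm anti-mouse secondaries, and Dmax and DC50 were derived from the LI-COR Odyssey signal.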

T1 sequence (P51531 whole entry): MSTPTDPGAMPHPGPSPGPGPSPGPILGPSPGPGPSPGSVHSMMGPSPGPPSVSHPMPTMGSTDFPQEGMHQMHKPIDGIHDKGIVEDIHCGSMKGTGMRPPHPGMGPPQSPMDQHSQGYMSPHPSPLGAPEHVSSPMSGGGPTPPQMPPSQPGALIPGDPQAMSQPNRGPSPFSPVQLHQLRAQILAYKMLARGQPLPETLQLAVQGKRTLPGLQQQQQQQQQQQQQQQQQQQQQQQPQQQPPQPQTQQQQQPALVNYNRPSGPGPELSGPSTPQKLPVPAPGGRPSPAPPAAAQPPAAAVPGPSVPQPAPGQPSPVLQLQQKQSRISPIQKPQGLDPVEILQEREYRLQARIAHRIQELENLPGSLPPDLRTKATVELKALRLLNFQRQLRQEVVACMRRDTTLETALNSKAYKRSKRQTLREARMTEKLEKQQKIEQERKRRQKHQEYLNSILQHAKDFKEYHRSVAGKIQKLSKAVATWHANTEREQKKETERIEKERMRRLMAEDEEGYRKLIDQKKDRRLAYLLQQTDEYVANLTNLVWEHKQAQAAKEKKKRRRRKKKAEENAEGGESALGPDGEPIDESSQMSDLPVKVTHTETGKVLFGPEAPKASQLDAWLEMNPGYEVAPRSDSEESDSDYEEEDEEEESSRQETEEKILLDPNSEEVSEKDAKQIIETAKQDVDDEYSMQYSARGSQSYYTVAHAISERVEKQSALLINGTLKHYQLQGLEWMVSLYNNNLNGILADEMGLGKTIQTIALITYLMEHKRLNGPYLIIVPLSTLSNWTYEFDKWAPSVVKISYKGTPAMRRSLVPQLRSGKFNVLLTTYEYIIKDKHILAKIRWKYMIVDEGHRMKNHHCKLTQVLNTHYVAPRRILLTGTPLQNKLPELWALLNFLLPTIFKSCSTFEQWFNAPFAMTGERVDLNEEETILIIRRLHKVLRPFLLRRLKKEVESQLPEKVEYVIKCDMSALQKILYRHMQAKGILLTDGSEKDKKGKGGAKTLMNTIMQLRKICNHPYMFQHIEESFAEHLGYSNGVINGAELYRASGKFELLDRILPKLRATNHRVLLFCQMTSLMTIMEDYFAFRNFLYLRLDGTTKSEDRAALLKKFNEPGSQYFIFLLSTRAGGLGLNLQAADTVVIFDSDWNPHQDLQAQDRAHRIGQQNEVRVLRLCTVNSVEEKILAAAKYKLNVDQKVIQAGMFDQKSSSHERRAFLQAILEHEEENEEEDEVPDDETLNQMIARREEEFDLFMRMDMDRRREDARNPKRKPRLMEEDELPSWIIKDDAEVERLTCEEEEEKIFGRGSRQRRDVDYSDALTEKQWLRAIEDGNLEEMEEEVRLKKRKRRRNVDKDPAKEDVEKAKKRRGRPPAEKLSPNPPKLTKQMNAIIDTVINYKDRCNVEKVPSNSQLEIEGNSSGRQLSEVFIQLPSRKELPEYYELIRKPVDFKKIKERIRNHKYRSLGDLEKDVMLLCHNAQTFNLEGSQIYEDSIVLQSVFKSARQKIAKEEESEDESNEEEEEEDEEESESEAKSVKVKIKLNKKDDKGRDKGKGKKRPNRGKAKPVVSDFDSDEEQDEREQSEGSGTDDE

| SMILES | DC50 | Dmax |
| --- | --- | --- |
| Cc1ncsc1-c1ccc([C@H](C)NC(=O)[C@@H]2C[C@@H](O)CN2C(=O)[C@@H](c2cc(OCCN3CCC(O[C@H]4C[C@H](Oc5cc(N6C7CCC6CN(c6cc(-c8ccccc8O)nnc6N)C7)ccn5)C4)CC3)no2)C(C)C)cn1 [compound 180, (2S,4R)-1-((2R)-2-(3-(2-(4-((1r,3R)-3-((4-(3-(3-amino-6-(2-hydroxyphenyl)pyridazin-4-yl)-3,8-diazabicyclo[3.2.1]octan-8-yl)pyridin-2-yl)oxy)cyclobutoxy)piperidin-1-yl)ethoxy)isoxazol-5-yl)-3-methylbutanoyl)-4-hydroxy-N-((S)-1-(6-(4-methylthiazol-5-yl)pyridin-3-yl)ethyl)pyrrolidine-2-carboxamide] | < 2.5 nM | > 75% |
| Cc1ncsc1-c1ccc([C@H](C)NC(=O)[C@@H]2C[C@@H](O)CN2C(=O)[C@H](c2cc(OCCOCCOCCOCCn3cc(-c4cc(-c5ccccc5O)nnc4N)cn3)no2)C(C)C)cc1 [compound 181, (2S,4R)-1-((S)-2-(3-(2-(2-(2-(2-(4-(3-amino-6-(2-hydroxyphenyl)pyridazin-4-yl)-1H-pyrazol-1-yl)ethoxy)ethoxy)ethoxy)ethoxy)isoxazol-5-yl)-3-methylbutanoyl)-4-hydroxy-N-((S)-1-(4-(4-methylthiazol-5-yl)phenyl)ethyl)pyrrolidine-2-carboxamide] | > 30 nM | – |
| Cc1ncsc1-c1ccc([C@H](C)NC(=O)[C@@H]2C[C@@H](O)CN2C(=O)[C@@H](c2cc(OCCOCCOCCOCCn3cc(-c4cc(-c5ccccc5O)nnc4N)cn3)no2)C(C)C)cc1 [compound 182, (2S,4R)-1-((R)-2-(3-(2-(2-(2-(2-(4-(3-amino-6-(2-hydroxyphenyl)pyridazin-4-yl)-1H-pyrazol-1-yl)ethoxy)ethoxy)ethoxy)ethoxy)isoxazol-5-yl)-3-methylbutanoyl)-4-hydroxy-N-((S)-1-(4-(4-methylthiazol-5-yl)phenyl)ethyl)pyrrolidine-2-carboxamide] | 2.5 to 10 nM | > 75% |
| Cc1ncsc1-c1ccc([C@H](C)NC(=O)[C@@H]2C[C@@H](O)CN2C(=O)[C@@H](NC(=O)COCCN2CCC(O[C@H]3C[C@H](Oc4cc(N5C6CCC5CN(c5cc(-c7ccccc7O)nnc5N)C6)ccn4)C3)CC2)C(C)(C)C)cc1 [compound 183, (2S,4R)-1-((2S)-2-(2-(2-(4-((1r,3S)-3-((4-(3-(3-amino-6-(2-hydroxyphenyl)pyridazin-4-yl)-3,8-diazabicyclo[3.2.1]octan-8-yl)pyridin-2-yl)oxy)cyclobutoxy)piperidin-1-yl)ethoxy)acetamido)-3,3-dimethylbutanoyl)-4-hydroxy-N-((S)-1-(4-(4-methylthiazol-5-yl)phenyl)ethyl)pyrrolidine-2-carboxamide] | < 2.5 nM | > 75% |
| COCc1ncsc1-c1ccc([C@H](C)NC(=O)[C@@H]2C[C@@H](O)CN2C(=O)[C@H](c2cc(OCCN3CCC(O[C@H]4C[C@H](Oc5cc(N6C7CCC6CN(c6cc(-c8ccccc8O)nnc6N)C7)ccn5)C4)CC3)no2)C(C)C)cc1 [compound 184, (2S,4R)-1-((2S)-2-(3-(2-(4-((1r,3S)-3-((4-(3-(3-amino-6-(2-hydroxyphenyl)pyridazin-4-yl)-3,8-diazabicyclo[3.2.1]octan-8-yl)pyridin-2-yl)oxy)cyclobutoxy)piperidin-1-yl)ethoxy)isoxazol-5-yl)-3-methylbutanoyl)-4-hydroxy-N-((S)-1-(4-(4-(methoxymethyl)thiazol-5-yl)phenyl)ethyl)pyrrolidine-2-carboxamide] | > 30 nM | – |
| COCc1ncsc1-c1ccc([C@H](C)NC(=O)[C@@H]2C[C@@H](O)CN2C(=O)[C@@H](c2cc(OCCN3CCC(O[C@H]4C[C@H](Oc5cc(N6C7CCC6CN(c6cc(-c8ccccc8O)nnc6N)C7)ccn5)C4)CC3)no2)C(C)C)cc1 [compound 185, (2S,4R)-1-((2R)-2-(3-(2-(4-((1r,3R)-3-((4-(3-(3-amino-6-(2-hydroxyphenyl)pyridazin-4-yl)-3,8-diazabicyclo[3.2.1]octan-8-yl)pyridin-2-yl)oxy)cyclobutoxy)piperidin-1-yl)ethoxy)isoxazol-5-yl)-3-methylbutanoyl)-4-hydroxy-N-((S)-1-(4-(4-(methoxymethyl)thiazol-5-yl)phenyl)ethyl)pyrrolidine-2-carboxamide] | < 2.5 nM | > 75% |
| Cc1ncsc1-c1ccc([C@H](C)NC(=O)[C@@H]2C[C@@H](O)CN2C(=O)[C@H](c2cc(OC/C=C/c3ccc(O[C@H]4C[C@H](Oc5cc(N6C7CCC6CN(c6cc(-c8ccccc8O)nnc6N)C7)ccn5)C4)cn3)no2)C(C)C)cc1 [compound 186, (2S,4R)-1-((2S)-2-(3-(((E)-3-(5-((1r,3S)-3-((4-(3-(3-amino-6-(2-hydroxyphenyl)pyridazin-4-yl)-3,8-diazabicyclo[3.2.1]octan-8-yl)pyridin-2-yl)oxy)cyclobutoxy)pyridin-2-yl)allyl)oxy)isoxazol-5-yl)-3-methylbutanoyl)-4-hydroxy-N-((S)-1-(4-(4-methylthiazol-5-yl)phenyl)ethyl)pyrrolidine-2-carboxamide] | 10 to 30 nM | > 75% |
| Cc1ncsc1-c1ccc([C@H](C)NC(=O)[C@@H]2C[C@@H](O)CN2C(=O)[C@H](c2cc(OCCN3CCN(CC#CCN4CCOC5(CCN(c6cc(-c7ccccc7O)nnc6N)CC5)C4)CC3)no2)C(C)C)cc1 [compound 187, (2S,4R)-1-((S)-2-(3-(2-(4-(4-(9-(3-amino-6-(2-hydroxyphenyl)pyridazin-4-yl)-1-oxa-4,9-diazaspiro[5.5]undecan-4-yl)but-2-yn-1-yl)piperazin-1-yl)ethoxy)isoxazol-5-yl)-3-methylbutanoyl)-4-hydroxy-N-((S)-1-(4-(4-methylthiazol-5-yl)phenyl)ethyl)pyrrolidine-2-carboxamide] | > 30 nM | – |
| Cc1ncsc1-c1ccc([C@H](C)NC(=O)[C@@H]2C[C@@H](O)CN2C(=O)[C@@H](c2cc(OCCN3CCN(CC#CCN4CCOC5(CCN(c6cc(-c7ccccc7O)nnc6N)CC5)C4)CC3)no2)C(C)C)cc1 [compound 188, (2S,4R)-1-((R)-2-(3-(2-(4-(4-(9-(3-amino-6-(2-hydroxyphenyl)pyridazin-4-yl)-1-oxa-4,9-diazaspiro[5.5]undecan-4-yl)but-2-yn-1-yl)piperazin-1-yl)ethoxy)isoxazol-5-yl)-3-methylbutanoyl)-4-hydroxy-N-((S)-1-(4-(4-methylthiazol-5-yl)phenyl)ethyl)pyrrolidine-2-carboxamide] | < 2.5 nM | > 75% |
| Cc1ncsc1-c1ccc([C@H](C)NC(=O)[C@@H]2C[C@@H](O)CN2C(=O)[C@@H](c2cc(OCCN3CCC(O[C@H]4C[C@H](OCCn5cc(-c6cc(-c7ccccc7O)nnc6N)cn5)C4)CC3)no2)C(C)C)cc1 [compound 189, (2S,4R)-1-((R)-2-(3-(2-(4-((1r,3R)-3-(2-(4-(3-amino-6-(2-hydroxyphenyl)pyridazin-4-yl)-1H-pyrazol-1-yl)ethoxy)cyclobutoxy)piperidin-1-yl)ethoxy)isoxazol-5-yl)-3-methylbutanoyl)-4-hydroxy-N-((S)-1-(4-(4-methylthiazol-5-yl)phenyl)ethyl)pyrrolidine-2-carboxamide] | < 2.5 nM | > 75% |
| Cc1ncsc1-c1ccc([C@H](C)NC(=O)[C@@H]2C[C@@H](O)CN2C(=O)[C@H](c2cc(CCCN3CCC(O[C@H]4C[C@H](Oc5cc(N6C7CCC6CN(c6cc(-c8ccccc8O)nnc6N)C7)ccn5)C4)CC3)no2)C(C)C)cc1 [compound 190, (2S,4R)-1-((2S)-2-(3-(3-(4-((1r,3S)-3-((4-(3-(3-amino-6-(2-hydroxyphenyl)pyridazin-4-yl)-3,8-diazabicyclo[3.2.1]octan-8-yl)pyridin-2-yl)oxy)cyclobutoxy)piperidin-1-yl)propyl)isoxazol-5-yl)-3-methylbutanoyl)-4-hydroxy-N-((S)-1-(4-(4-methylthiazol-5-yl)phenyl)ethyl)pyrrolidine-2-carboxamide] | > 30 nM | – |
| Cc1ncsc1-c1ccc([C@H](C)NC(=O)[C@@H]2C[C@@H](O)CN2C(=O)[C@@H](c2cc(CCCN3CCC(O[C@H]4C[C@H](Oc5cc(N6C7CCC6CN(c6cc(-c8ccccc8O)nnc6N)C7)ccn5)C4)CC3)no2)C(C)C)cc1 [compound 191, (2S,4R)-1-((2R)-2-(3-(3-(4-((1r,3R)-3-((4-(3-(3-amino-6-(2-hydroxyphenyl)pyridazin-4-yl)-3,8-diazabicyclo[3.2.1]octan-8-yl)pyridin-2-yl)oxy)cyclobutoxy)piperidin-1-yl)propyl)isoxazol-5-yl)-3-methylbutanoyl)-4-hydroxy-N-((S)-1-(4-(4-methylthiazol-5-yl)phenyl)ethyl)pyrrolidine-2-carboxamide] | < 2.5 nM | > 75% |
| Cc1ncsc1-c1ccc([C@H](C)NC(=O)[C@@H]2C[C@@H](O)CN2C(=O)C(c2cc(OCCN3CCN(CCO[C@H]4C[C@H](OCCN5CCOC6(CCN(c7cc(-c8ccccc8O)nnc7N)CC6)C5)C4)CC3)no2)C(C)C)cc1 (stereo partly drawn) [compound 192, (2S,4R)-1-(2-(3-(2-(4-(2-((1r,3r)-3-(2-(9-(3-amino-6-(2-hydroxyphenyl)pyridazin-4-yl)-1-oxa-4,9-diazaspiro[5.5]undecan-4-yl)ethoxy)cyclobutoxy)ethyl)piperazin-1-yl)ethoxy)isoxazol-5-yl)-3-methylbutanoyl)-4-hydroxy-N-((S)-1-(4-(4-methylthiazol-5-yl)phenyl)ethyl)pyrrolidine-2-carboxamide] | < 2.5 nM | > 75% |
| Cc1cnn(C)c1-c1ccc([C@H](C)NC(=O)[C@@H]2C[C@@H](O)CN2C(=O)[C@H](c2cc(OCCN3CCN(CCOc4cc(N5C6CCC5CN(c5cc(-c7ccccc7O)nnc5N)C6)ccn4)CC3)no2)C(C)C)cc1 [compound 193, (2S,4R)-1-((2S)-2-(3-(2-(4-(2-((4-(3-(3-amino-6-(2-hydroxyphenyl)pyridazin-4-yl)-3,8-diazabicyclo[3.2.1]octan-8-yl)pyridin-2-yl)oxy)ethyl)piperazin-1-yl)ethoxy)isoxazol-5-yl)-3-methylbutanoyl)-N-((S)-1-(4-(1,4-dimethyl-1H-pyrazol-5-yl)phenyl)ethyl)-4-hydroxypyrrolidine-2-carboxamide] | > 30 nM | > 75% |
